Measured values from patent US4732970A, “Antitumor amino acid and peptide derivatives of 1,4-bis(aminoalkyl and hydroxy-aminoalkyl)amino)-5,8-dihydroxyanthraquinones” (priority 1986, dated 1988).
Read-outs that look alike come from different tables or passages of the source. *1 amine or outer side, *2 acyl side, *3 side chain or, on linkers, in order; H or OH if unused. Where a SMILES comes first, the peptide text is derived from it. Bridges are numbered along the chain shown (N, C = ends). Roman numbers before positions name the chains, in order. X1 = O=C1c2c(O)ccc(O)c2C(=O)c2c(NCCN[*:2])ccc(NCCN[*:1])c21

Tested on: lymphocytic leukemia P388
Assay: Lymphocytic Leukemia P388 Test
Type: in vivo, BDF1 mice
Conditions: for response vs control in vivo at 0.75 mg/kg / response vs control in vivo at 1.5 mg/kg / response vs control in vivo at 3 mg/kg: Mus musculus, P388, ip; for Median Survival: BDF1 mice
Description: The animals used were BDF1 mice, all of one sex, weighing a minimum of 18 g and all within a 3 g weight range. There were 5 or 6 mice per test group. The tumor transplant was by intraperitoneal injection of 0.5 ml of dilute ascitic fluid containing 10^6 cells of lymphocytic leukemia P388. The test compounds were administered intraperitoneally on days 1, 5 and 9 (relative to tumor inocu-lation) at various doses. The animals were weighed and survivors recorded on a regular basis for 60 days. The median survival time and the ratio of survival time for treated (T)/control (C) animals were calculated.

[1] = dose 0.75 mg/kg intraperitoneally on days 1, 5 and 9
[2] = dose 1.5 mg/kg intraperitoneally on days 1, 5 and 9
[3] = dose 3 mg/kg intraperitoneally on days 1, 5 and 9
[4] = dose 0.75 mg/kg intraperitoneally on days 1, 5 and 9, ratio of survival time treated/control
[5] = dose 1.5 mg/kg intraperitoneally on days 1, 5 and 9, ratio of survival time treated/control
[6] = dose 3 mg/kg intraperitoneally on days 1, 5 and 9, ratio of survival time treated/control

SMILES	response vs control in vivo at 0.75 mg/kg (dose 0.75 mg/kg intraperitoneally on days 1, 5 and 9, ratio of survival time treated/control, read-out: T/C × 100 (%)) [%]	response vs control in vivo at 1.5 mg/kg (dose 1.5 mg/kg intraperitoneally on days 1, 5 and 9, ratio of survival time treated/control, read-out: T/C × 100 (%)) [%]	response vs control in vivo at 3 mg/kg (dose 3 mg/kg intraperitoneally on days 1, 5 and 9, ratio of survival time treated/control, read-out: T/C × 100 (%)) [%]	Median Survival [1] [days]	Median Survival [2] [days]	Median Survival [3] [days]	response vs control in vivo at 0.75 mg/kg (read-out: T/C × 100 (%), dose 0.75 mg/kg intraperitoneally on days 1, 5 and 9, ratio of survival time treated/control) [%]	response vs control in vivo at 1.5 mg/kg (read-out: T/C × 100 (%), dose 1.5 mg/kg intraperitoneally on days 1, 5 and 9, ratio of survival time treated/control) [%]	response vs control in vivo at 3 mg/kg (read-out: T/C × 100 (%), dose 3 mg/kg intraperitoneally on days 1, 5 and 9, ratio of survival time treated/control) [%]	T/C × 100 (%) [4] [%]	T/C × 100 (%) [5] [%]	T/C × 100 (%) [6] [%]	response vs control in vivo at 0.75 mg/kg (read-out: T/C × 100 (%)) [%]	response vs control in vivo at 1.5 mg/kg (read-out: T/C × 100 (%)) [%]	response vs control in vivo at 3 mg/kg (read-out: T/C × 100 (%)) [%]
CC(C)CC(N)C(=O)N(CCO)CCNc1ccc(NCCN(CCO)C(=O)C(N)CC(C)C)c2c1C(=O)c1c(O)ccc(O)c1C2=O.Cl.Cl (stereo not drawn) [Example 28, N,N'-[(9,10-Dihydro-5,8-dihydroxy-9,10-dioxo-1,4-anthracenediyl)bis(imino-2,1-ethanediyl)]bis[2-amino-N-(2-hydroxyethyl)-4-methylpentanamide], dihydrochloride]	109	127	155	12.0	14.0	17.0									
Br.Br.CC(C)C[C@H](N)C(=O)N[C@@H](C)C(=O)NCCNc1ccc(NCCNC(=O)[C@H](C)NC(=O)[C@@H](N)CC(C)C)c2c1C(=O)c1c(O)ccc(O)c1C2=O [Example 50, N,N'-[(9,10-Dihydro-5,8-dihydroxy-9,10-dioxo-1,4-anthracenediyl)bis(imino-2,1-ethanediyl)]bis[L-leucyl-L-alaninamide], dihydrobromide]				17.0	20.0	20.0	170	200	200						
CC(C)C[C@H](NC(=O)OCc1ccccc1)C(=O)N[C@@H](C)C(=O)N[C@@H](CC(C)C)C(=O)NCCNc1ccc(NCCNC(=O)[C@H](CC(C)C)NC(=O)[C@H](C)NC(=O)[C@H](CC(C)C)NC(=O)OCc2ccccc2)c2c1C(=O)c1c(O)ccc(O)c1C2=O [Example 51]				20.0	19.0	17.0				182	173	155			
Br.Br.CC(C)C[C@H](NC(=O)[C@H](C)NC(=O)[C@@H](N)CC(C)C)C(=O)NCCNc1ccc(NCCNC(=O)[C@H](CC(C)C)NC(=O)[C@H](C)NC(=O)[C@@H](N)CC(C)C)c2c1C(=O)c1c(O)ccc(O)c1C2=O [Example 52, N,N'-[(9,10-Dihydro-5,8-dihydroxy-9,10-dioxo-1,4-anthracenediyl)bis(imino-2,1-ethanediyl)]bis[L-leucyl-L-Alanyl-L-leucinamide]dihydrobromide]				20.5	25.5	25.0				205	255	250			
O=C(CNC(=O)OCc1ccccc1)N[C@@H](Cc1ccccc1)C(=O)NCCNc1ccc(NCCNC(=O)[C@H](Cc2ccccc2)NC(=O)CNC(=O)OCc2ccccc2)c2c1C(=O)c1c(O)ccc(O)c1C2=O [Example 53]				18.5	17.5	19.0				168	159	173			
C[C@H](NC(=O)OCc1ccccc1)C(=O)NCC(=O)NCCNc1ccc(NCCNC(=O)CNC(=O)[C@H](C)NC(=O)OCc2ccccc2)c2c1C(=O)c1c(O)ccc(O)c1C2=O [Example 55]				12.5	13.0	19.0				114	118	173			
Br.Br.C[C@H](N)C(=O)NCC(=O)NCCNc1ccc(NCCNC(=O)CNC(=O)[C@H](C)N)c2c1C(=O)c1c(O)ccc(O)c1C2=O [Example 56, N,N'-[(9,10-Dihydro-5,8-dihydroxy-9,10-dioxo-1,4-anthracenediyl)bis(imino-2,1-ethanediyl)]bis[L-alanyl-glycinamine]dihydrobromide]				21.0	28.0	32.5				191	255	295			
O=C(CNC(=O)CNC(=O)OCc1ccccc1)NCCNc1ccc(NCCNC(=O)CNC(=O)CNC(=O)OCc2ccccc2)c2c1C(=O)c1c(O)ccc(O)c1C2=O [Example 57, N,N'-[(9,10-Dihydro-5,8-dihydroxy-9,10-dioxo-1,4-anthracenediyl)bis(imino-2,1-ethanediyl)]bis[N-[(phenylmethoxy)carbonyl]glycyl]glycinamide]				12.0	14.0	15.0				109	127	136			
Br.Br.NCC(=O)NCC(=O)NCCNc1ccc(NCCNC(=O)CNC(=O)CN)c2c1C(=O)c1c(O)ccc(O)c1C2=O [Example 58, N,N'-[(9,10-Dihydro-5,8-dihydroxy-9,10-dioxo-1,4-anthracenediyl)bis(imino-2,1-ethanediyl)]bis[glycyl-glycinamide]dihydrobromide]				22.0	21.5	24.0				200	195	218			
CC(C)(C)OC(=O)NCC(=O)NCC(=O)NCC(=O)NCCNc1ccc(NCCNC(=O)CNC(=O)CNC(=O)CNC(=O)OC(C)(C)C)c2c1C(=O)c1c(O)ccc(O)c1C2=O [Example 59, N,N'-[(9,10-Dihydro-5,8-dihydroxy-9,10-dioxo-1,4-anthracenediyl)bis(imino-2,1-ethanediyl)]bis[N-[(1,1-dimethylethoxy)carbonyl]glycylglycyl]glycinamide]				15.0	15.5	18.0				136	141	164			
NCC(=O)NCC(=O)NCC(=O)NCCNc1ccc(NCCNC(=O)CNC(=O)CNC(=O)CN)c2c1C(=O)c1c(O)ccc(O)c1C2=O.O=C(O)C(F)(F)F.O=C(O)C(F)(F)F [Example 60, N,N'-[(9,10-Dihydro-5,8-dihydroxy-9,10-dioxo-1,4-anthracenediyl)bis(imino-2,1-ethanediyl)]bis[glycylglycylglycinamide]bis(trifluoroacetate)]				19.5	23.0	22.0				177	209	200			
Br.Br.CC(C)C[C@H](NC(=O)[C@@H]1CCCN1C(=O)CN)C(=O)NCC(=O)N1CCC[C@H]1C(=O)NCCNc1ccc(NCCNC(=O)[C@@H]2CCCN2C(=O)CNC(=O)[C@H](CC(C)C)NC(=O)[C@@H]2CCCN2C(=O)CN)c2c1C(=O)c1c(O)ccc(O)c1C2=O [Example 62, N,N'-[(9,10-Dihydro-5,8-dihydroxy-9,10-dioxo-1,4-anthracenediyl)bis(imino-2,1-ethanediyl)]bis[glycyl-L-prolyl-L-leucylglycyl-L-prolinamide]dihydrobromide]				19.0	22.0	24.5				190	220	245			
Br.Br.C[C@H](NC(=O)[C@@H]1CCCN1C(=O)CNC(=O)CNC(=O)[C@@H]1CCCN1C(=O)CN)C(=O)NCCNc1ccc(NCCNC(=O)[C@H](C)NC(=O)[C@@H]2CCCN2C(=O)CNC(=O)CNC(=O)[C@@H]2CCCN2C(=O)CN)c2c1C(=O)c1c(O)ccc(O)c1C2=O [Example 64, N,N'-[(9,10-Dihydro-5,8-dihydroxy-9,10-dioxo-1,4-anthracenediyl)bis(imino-2,1-ethanediyl)]bis[glycyl-L-prolylglycylglycyl-L-prolyl-L-alaninamide]-dihydrobromide] (I: H-GPGGPA / II: H-GPGGPA; linker I:C-II:C via X1)				19.5	20.5	25.5							195	205	255
CC(C)C[C@H](NC(=O)[C@H](C)NC(=O)OC(C)(C)C)C(=O)NCCNc1ccc(NCCNC(=O)[C@H](CC(C)C)NC(=O)[C@H](C)NC(=O)OC(C)(C)C)c2c1C(=O)c1c(O)ccc(O)c1C2=O [Example 65]				12.0	12.0	13.5				109	109	123			
CC(C)C[C@H](NC(=O)[C@H](C)N)C(=O)NCCNc1ccc(NCCNC(=O)[C@H](CC(C)C)NC(=O)[C@H](C)N)c2c1C(=O)c1c(O)ccc(O)c1C2=O.O=C(O)C(F)(F)F.O=C(O)C(F)(F)F [Example 66, N,N'-[(9,10-Dihydro-5,8-dihydroxy-9,10-dioxo-1,4-anthracenediyl)bis(imino-2,1-ethanediyl)]bis[L-alanyl-L-leucinamide]bis(trifluoroacetate)]				19.0	20.0	28.0				173	182	255			
